Source: US4322555A, “Nonaprenylamine derivatives” (priority 1980, dated 1982)
Structures can show the parent of a compound that is named as a salt. Where two headings read alike, the source gives them in different places.

Columns and labels:
[1] = tested on: vaccinia virus (DIE strain); assay type: in vivo, vaccinia virus (DIE strain) in ICR female mice; conditions: 50 mg/kg i.p. on the day just before inoculation; ICR female mice; lesions counted 8th day
[2] = tested on: serum interferon; design: species or system mice; conditions: mouse, in vivo
[3] = Toxicity (acute toxicity, 50% lethal dose); conditions: mouse, in vivo, ddY male mice
[4] = ip, read-out: 50% Lethal dose, intraperitoneally administered
[5] = iv, read-out: 50% Lethal dose, intravenously administered

For `CC(C)=CCCC(C)=CCCC(C)=CCCC(C)=CCCC(C)=CCCC(C)=CCCC(C)=CCCC(C)=CCCC(C)=CCNCCc1ccccc1` [N-phenethylsolanesylamine hydrochloride], the “Prevention from vaccinia infection (Inhibition of tail lesion)” value (from here on “Prevention … (Inhibition of tail lesion)”) [1] was 30.8%, the “Serum interferon (Plaque inhibition)” value [2] was 19.1% and the LD50 [3, 4] was over 500 mg/kg. The LD50 [3, 5] was 250 mg/kg.

In the case of `CC(C)=CCCC(C)=CCCC(C)=CCCC(C)=CCCC(C)=CCCC(C)=CCCC(C)=CCCC(C)=CCCC(C)=CCN(C)Cc1ccccc1` [N-methyl-N-benzylsolanesylamine hydrochloride], the “Prevention … (Inhibition of tail lesion)” value [1] is reported as 17.5%, the “Serum interferon (Plaque inhibition)” value [2] is reported as 44.5% and the LD50 [3, 4] is reported as over 500 mg/kg. The LD50 [3, 5] was 550 mg/kg.

With `CC(C)=CCCC(C)=CCCC(C)=CCCC(C)=CCCC(C)=CCCC(C)=CCCC(C)=CCCC(C)=CCCC(C)=CCNCc1ccccc1` [N-benzylsolanesylamine hydrochloride] the “Prevention … (Inhibition of tail lesion)” value [1] was 74.7%, the “Serum interferon (Plaque inhibition)” value [2] was 31.5% and the LD50 [3, 5] was 152 mg/kg.

For `CC(C)=CCCC(C)=CCCC(C)=CCCC(C)=CCCC(C)=CCCC(C)=CCCC(C)=CCCC(C)=CCCC(C)=CCN(C)c1ccccc1` [N-methyl-N-phenylsolanesylamine], the “Prevention … (Inhibition of tail lesion)” value [1] was 26.8%, the “Serum interferon (Plaque inhibition)” value [2] was 24.1% and the LD50 [3, 4] was over 500 mg/kg. For the same compound, the LD50 [3, 5] was over 500 mg/kg.
